Source: US20120088827A1 (Profectus Biosciences, Inc., priority 2009, published 2012)
Read-outs that look alike come from different tables or passages of the source.

What was measured:
[1] = biological target: T1, NF-κB p65 (Homo sapiens, UniProt Q04206); test: TransAM NF-κB Family DNA Binding ELISA, p65
T1 construct: purchased Active Motif
Protocol: The binding activity of NF-κB heterodimer or homodimer subunits from activated nuclear extracts or purified recombinant NF-κB proteins exposed to the drug compounds was evaluated using the TransAM NF-κB Family binding ELISA (Active Motif). Approximately 3-5 μg of nuclear extracts from TNFα activated Hela or Raji cells (Active Motif) or 20 ng of purified recombinant proteins (p65 and p50 from Active Motif, p52 from Santa Cruz) were incubated for 1 hour at room temperature with 20 μL drug compounds diluted in Complete Lysis buffer without DTT. Treated samples were then transferred to 30 μL Complete Binding Buffer (with DTT) in microplate wells pre-coated with the NF-κB consensus oligonucleotide. […] The plate was incubated for 1 hour at room temperature with gentle shaking and then washed 3 times with 200 μL 1× Wash Buffer. NF-κB p65, p50, p52, RelB, or c-Rel subunits bound to the plate were detected with 100 μL of the primary antibody (diluted 1:1000 in 1× Antibody Buffer) specific for that subunit. The plate was incubated for 1 hour at room temperature and then washed 3 times with 200 μL 1× Wash Buffer. Next, 100 μL of a HRP conjugated goat anti-rabbit antibody (diluted 1:1,000 in 1× Antibody Buffer) was added to each well. The plate was incubated for 1 hour at room temperature and then washed 4 times with 200 μL 1× Wash Buffer. 100 μL of room temperature Developing Solution was added to each well. The reaction was allowed to develop for 2-10 minutes until a medium dark blue color developed (depending on the subunit activity in the lot of extract or lot of recombinant protein used) and then the reaction was stopped with 100 μL Stop Solution yielding a yellow color. Absorbance was recorded using a Becton-Dickinson DTX 880 Multimode Detector at 450 nm with a reference wavelength subtracted at 620 nm.

[2] = tested on: NF-κB driven transcription (pNF-κB-luc reporter, 293 cells); test: 293/NF-kB-luc reporter cell assay; type: cell-based; conditions: Homo sapiens; compound 2 hours, then 20 ng/ml TNF-α for 18 hours; luminescence
Protocol: (§1) Two reporter cell assays were used to determine the ability of the compounds of Examples 1-12 to inhibit NF-κB driven transcription. The first assay was a 293-cell based assay with a stably integrated pNF-κB-luc reporter plasmid containing 3 NF-κB promoter elements. The second assay was a 293-cell based assay with a stably integrated pTRH1-NF-κB-dscGFP reporter containing 4 NF-κB promoter elements. Cells were treated with 0, 0.2, 1, 10, 20 and 40 μM of the compounds of Example 1-12 for 2 hours then were induced with 20 ng/ml TNF-α for 18 hours. Following the induction, luminescence or fluorescence was quantified using a Beckman-Coulter 2300 plate reader. […] As a control, 0.5% DMSO treated and untreated cells were compared to verify that the compounds of Examples 1-12 had no effect on the expression of luciferase or in the readout of the assay. There was a slight decrease in the output from the assay in the DMSO treated population although it was not statistically significant. As a result of the controls, the decrease in activity in the drug treated samples was compared to the DMSO control sample.

[3] = tested on: NF-κB driven transcription (pTRH1-NF-κB-dscGFP reporter, 293 cells); test: NF-kB/293/GFP reporter cell assay; type: cell-based; conditions: Homo sapiens, HEK293; compound 2 hours, then 20 ng/ml TNF-α for 18 hours; fluorescence
Protocol: as §1

[4] = tested on: IL-6; test: Inhibition of IL-6 release in LPS-stimulated RAW 264.7 cells; type: cell-based; conditions: Mus musculus, RAW264.7; pretreated 2 hours, 1 μg/mL LPS 20-24 hours
Protocol: RAW 264.7 cells were seeded at 4×10^4 cells per well in complete growth medium in 96 well white TC plates with clear bottoms one day prior to the assay. The next day the cells were washed once and 100 μL fresh growth media was added. Cells were pretreated with 0.5 μL from a 6 point 200× dilution series of the test compounds in DMSO for 2 hours. Following pretreatment with the drugs, the inflammatory response was induced by adding 5 μL of a 20 μg/mL solution of LPS (Sigma). The cells were incubated in the presence of the drugs and 1 μg/mL LPS for another 20-24 hours. Typically after treatment the total DMSO was […] of the culture volume and the final concentrations of the compounds were approximately: 40, 20, 10, 1, 0.2 and 0 μM depending on the MW of each compound. Modified dilution series were prepared as needed to get adequate dose response curves without changing the % DMSO. Samples were run in duplicate or triplicate and included DMSO treated control wells with and without LPS stimulation. Drugs with a known activity such as Parthenolide or DHMEQ were run as experimental controls. After 20-24 hours LPS activation, the media supernatant was collected from the cells and replaced with fresh media. The supernatant samples were cleared by centrifugation at 1,000×g for 5 minutes, transferred to fresh storage plates, and stored frozen at −30° C.
After determining the appropriate supernatant dilutions experimentally, mIL-6 levels in the supernatants were quantified using Quantikine™ mouse IL-6 Immunoassay (R&D Systems) according to the manufacturer's protocol. Approximately 50 μL of the supernatants diluted in Calibrator Diluent were added to 50 μL of Assay Diluent in microplate wells pre-coated with an anti-mouse IL-6 capture antibody. Controls included a calibrated positive IL-6 control sample, non-specific binding (NSB) wells containing Calibrator Diluent but no IL-6, and a recombinant mouse IL-6 standard dilution series (10-1000 pg/mL). The plates were incubated at room temperature for 2 hours with shaking and then washed 5 times with 400 μL 1× Wash Buffer. Approximately 100 μL of an HRP-conjugated anti-mouse IL-6 antibody was added to each well to detect IL-6 captured on the plate. The plates were incubated at room temperature for 2 hours and then washed 5 times with 400 μl 1× Wash Buffer. Equal volumes of Color Reagents A and B were mixed and 100 μL of this HRP Substrate Solution was added to each well on the plate. The blue color was allowed to develop for 30 minutes and then the reaction was stopped using 100 μL of Stop Solution yielding a yellow color. Absorbance at 450 nm with a reference wavelength subtracted at 595 nm was recorded using a Becton-Dickinson DTX 880 Multimode Detector.
The concentration of mIL-6 in the unknown samples was determined from a curve-fit of the mIL-6 standard absorbance data and multiplying by the dilution factor. The maximum activity achieved in the absence of the inhibitor (DMSO+LPS treated wells) was arbitrarily given a value of 100%; likewise the minimum activity in the absence of the stimulant (no LPS) was assigned a value of 0% Inhibition of the amount of mIL-6 cytokine released in the drug treated wells was calculated relative to the maximum activation in the DMSO+LPS treated control wells (i.e., % inhibition=100−(drug+LPS treated)/(DMSO+LPS treated)). Dose response curves were used to determine the effective concentration to inhibit 50% of the mIL-6 cytokine released (IC50) by means of a SigmaPlot macro which fits a sigmoidal dose-response curve to the (log 10) μM concentration versus % inhibition. […] This technique yields an objective value for the IC50 provided that 50% inhibition was approached at the concentrations tested.

[5] = binding to NF-κB consensus oligonucleotide, read-out: p65 binding IC50

T1 sequence (Q04206 whole entry): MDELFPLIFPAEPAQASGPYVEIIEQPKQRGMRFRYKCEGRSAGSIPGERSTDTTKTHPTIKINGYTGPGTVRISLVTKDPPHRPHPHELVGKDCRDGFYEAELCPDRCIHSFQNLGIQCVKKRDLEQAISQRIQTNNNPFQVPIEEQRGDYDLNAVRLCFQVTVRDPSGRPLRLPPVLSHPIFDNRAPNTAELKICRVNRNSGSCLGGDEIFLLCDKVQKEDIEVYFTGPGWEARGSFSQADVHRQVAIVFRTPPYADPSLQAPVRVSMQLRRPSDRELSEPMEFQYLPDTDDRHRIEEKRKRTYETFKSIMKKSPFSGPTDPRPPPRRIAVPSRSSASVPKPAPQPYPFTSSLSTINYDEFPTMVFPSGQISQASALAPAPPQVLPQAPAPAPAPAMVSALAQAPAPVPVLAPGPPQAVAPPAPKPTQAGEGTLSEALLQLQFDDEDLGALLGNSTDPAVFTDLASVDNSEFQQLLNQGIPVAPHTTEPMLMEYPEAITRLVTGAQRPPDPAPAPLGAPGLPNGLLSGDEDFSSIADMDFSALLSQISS

`CC(C)(C)CC(=O)Oc1ccccc1C(=O)NC1=CC(=O)C2OC2C1OC(=O)CC(C)(C)C` (racemic) [Example 9, (±)-2-(2-(3,3-dimethylbutanoyloxy)-5-oxo-7-oxabicyclo[4.1.0]hept-3-en-3-ylcarbamoyl)phenyl 3,3-dimethylbutanoate] gave an IC50 [1, 5] of 116 µM, an EC50 [2] of 15 µM and an EC50 [3] of 16 µM. For the same compound, the EC50 [4] was 1.4 µM.
`CCOP(=O)(OCC)Oc1ccccc1C(=O)NC1=CC(=O)C2OC2C1O` (racemic) [Example 10, (±)-diethyl 2-(2-hydroxy-5-oxo-7-oxabicyclo[4.1.0]hept-3-en-3-ylcarbamoyl)phenyl phosphate] showed an IC50 [1] of 59 µM, an EC50 [2] of 24 µM and an EC50 [3] of 13 µM. The EC50 [4] was 6 µM.
In the case of `O=C(Nc1ccccc1)OC1C(NC(=O)c2ccccc2O)=CC(=O)C2OC21` (racemic) [Example 11, (±)-3-(2-hydroxybenzamido)-5-oxo-7-oxabicyclo[4.1.0]hept-3-en-2-yl phenylcarbamate], the IC50 [1, 5] is reported as 7.3 µM, the EC50 [2] is reported as 3.3 µM and the EC50 [3] is reported as 4.3 µM. The EC50 [4] was 0.87 µM.
With `O=C(NC1=CC(=O)C2OC2C1O)c1ccccc1OP(=O)(OCc1ccccc1)OCc1ccccc1` (racemic) [Example 12, (±)-dibenzyl 2-(2-hydroxy-5-oxo-7-oxabicyclo[4.1.0]hept-3-en-3-ylcarbamoyl)phenyl phosphate] the IC50 [1, 5] was > 320 µM, the EC50 [2] was > 26 µM and the EC50 [3] was > 26 µM. The EC50 [4] was > 26 µM.
